Experimental data: article PMC12728982, “Multichiral Half-Sandwich Ru(II) and Os(II) Anticancer Complexes Containing a Glutathione Synthesis Inhibitor” (Organometallics, 2025)
Entries after “also recorded” stand apart in the source; their conditions may differ.

Key:
[1] = system: A549 lung carcinoma cells; assay: Antiproliferative activity, SRB assay; format: cell-based, human
Procedure: (§1) The antiproliferative activity against human A549 lung, IGROV-1 ovarian, and HeLa cervical cancer cell lines and MRC5 normal lung fibroblasts was determined by the sulforhodamine B (SRB) assay. […] IGROV-1 is known to be cisplatin-sensitive and subject to hypermutation.
(§2) 2.8 Mammalian cell culture
(§3) The human ovarian cancer cell line, IGROV-1; the human cervical cancer cell line, HeLa; the human […]; and the human non-cancerous lung fibroblast cell line, MRC5 were cultured in DMEM supplemented with 10% FBS and 100 units/mL of penicillin and 100 µg/mL of streptomycin (1x pen/strep). All cell lines were incubated at 310 K with 5% CO2 and 95% humidity for routine maintenance and during drug treatment.
(§4) 2.9 Sulforhodamine (SRB) cytotoxicity assay
(§5) Cells were seeded at 5 × 10^3 cells per well and incubated at 310 K for 48 h. Stock solutions (200 µM) of the complexes were prepared by dissolving the compound in 5% (v/v) DMSO followed by dilution with DMEM and serial dilutions with DMEM were prepared (0.1 µM-200 The cells were exposed to the drug for 24 h. The drug was then removed, and cells were allowed to recover for 72 h, in drug-free media. Cell viability was then determined by the SRB colorimetric assay. The solubilised dye absorbance was analysed on a microplate reader (Thermo Scientific Multiskan FC with Scanit software 4.1) at 470 nm. Data were normalized using Microsoft Excel, and dose-response curves fitted using Origin 2016. The IC50 values

[2] = system: IGROV-1 ovarian carcinoma cells; assay: Antiproliferative activity, SRB assay; format: cell-based, human
Procedure: as §1, §2, §3, §4, §5

[3] = system: MRC-5 normal lung fibroblasts; assay: Antiproliferative activity, SRB assay; format: cell-based, human
Procedure: as §1, §2, §3, §4, §5

[4] = system: HeLa cervical adenocarcinoma cells; assay: Antiproliferative activity, SRB assay; format: cell-based, human
Procedure: as §1, §2, §3, §4
as §5, with “µM-200 µM).” for “µM-200”

[5] = system: IGROV-1 human ovarian cancer cells; assay: Cell cycle arrest by flow cytometry (PI); format: cell-based; details: IGROV-1, 100 μM, 24 h treatment, vs untreated
Procedure: 2 Effect of Os/Ru-LBSO and glycine complexes at 50 or 100 μM on the phases of the cell cycle of IGROV-1 human ovarian cancer cells compared with untreated (control) cells. Percentage of cells in G1 (black bar, cell growth), S (gray, DNA synthesis), G2/M, (white, growth/mitosis) as determined by flow cytometry after 24 h treatment with complexes. […] Standard deviations calculated for N = 3 *p-value <0.05 comparing to untreated sample.
as §2
as §3, with “treatment. […]” for “treatment.”
IGROV-1 cells (1 x 10^6 cells per well) were seeded in a 6-well plate and incubated for 24 h at 310 K. Stock solutions (200 µM) of the complexes were prepared by dissolving the compound in 5% (v/v) DMSO followed by dilution with DMEM and then diluted to desired concentrations. All complexes (50 µM and 100 µM) were added to the wells and incubated for 24 h. Cell pellets were collected using 0.25% trypsin and centrifuged (500 x g, 5 mins at 4 °C). Then washed in PBS and fixed with 100% ice-cold ethanol for 20 min on ice. The ethanol […]
was aspirated, cells washed in ice-cold PBS and then stained with 0.2 mg/mL RNase, 0.05 mg/mL propidium iodide (PI) in PBS for 25 min in the dark and on ice. Excess dye was removed, and cells were re-suspended in PBS. Samples were analysed by flow cytometry using the BD

[(p-cymene)Os(L-BSO)Cl] [Os-LBSO]
Activity toward lung cancer cells ([1]; A549, SRB): inactive | IC50 ([1]; A549, SRB assay, 24 h treatment, 72 h recovery): > 200 µM | Activity against IGROV-1 ([2]; IGROV-1, SRB): active | IC50 ([2]; IGROV-1, SRB assay, 24 h treatment, 72 h recovery): 14.6 ± 0.5 µM | Activity toward normal lung cells ([3]; MRC-5, SRB): highly active; also recorded: some activity | IC50 ([3]; MRC-5, SRB assay, 24 h treatment, 72 h recovery): 11.8 ± 0.6 µM | Activity toward HeLa cervical cancer cells ([4]; SRB): inactive | IC50 ([4]; SRB assay, 24 h treatment, 72 h recovery): > 200 µM | G1 arrest (percentage of cells in G1) [5]: significantly increased
